# From patent US12421225B2, “Heteroaromatic amide derivative and medicament containing the same” (KAKEN PHARMACEUTICAL CO., LTD., priority 2018, dated 2025)
# Target: human Nav1.5 (Homo sapiens (Human), UniProt Q14524)
# Experiment: Human Nav1.5 inhibitory activity evaluation (automated patch clamp QPatch16X, HEK293 cells stably expressing human Nav1.5)
# Format: cell-based
# Details: HEK293 cells stably expressing human Nav1.5, automated patch clamp QPatch16X
# Procedure: Test Example 2: Human Nav1.5 Inhibitory Activity Evaluation
# A cell line in which human Nav1.5 was stably expressed in HEK293 cells was used. DMEM supplemeted with 15% fetal bovine serum, 500 μg/ml geneticin, 100 units/ml penicillin, 100 μg/ml streptomycin, 20 mM HEPES was used as culture medium under the conditions of 37° C. and 5% CO2 in T175 flasks to carry out culturing. When 60-80% confluence was reached, a cell suspension of about 0.5-5.0×10^6 cells/mL was prepared. The amount of current through human Nav1.5 was recorded using a fully automatic patch clamp device QPatch16X at room temperature. As the extracellular solution, 145 mM NaCl, 4 mM KCl, 1 mM MgCl2, 2 mM CaCl2, 10 mM Glucose, and 10 mM HEPES at pH 7.4 was used. As the intracellular solution, 135 mM CsF, ⅕ mM EGTA/CsOH, 10 mM HEPES, and 10 mM NaCl at pH 7.3 was used. The test compounds were dissolved in DMSO and diluted with the extracellular solution to attend the DMSO concentration of 0.1% at the time of assay.
# The current response was obtained at a sampling frequency of 25 kHz, and noise was removed with a 3 kHz low-pass filter. The holding potential was −80 mV. Correction of the leakage current was carried out by applying a step pulse of −100 mV before the test pulse. In order to investigate human Nav1.5 inhibitory effect of the test compound, test pulses imitating the action potential of cardiomyocytes were continuously given 20 times. The test pulses were given before and after the test compound addition.
# The inhibitory activity of the test compound was determined based on the amount of inward current generated by the 20th depolarization pulse, and the 50% inhibitory concentration (IC50) was calculated from the concentration-response curve.
# Chain of human Nav1.5 (Q14524 whole entry): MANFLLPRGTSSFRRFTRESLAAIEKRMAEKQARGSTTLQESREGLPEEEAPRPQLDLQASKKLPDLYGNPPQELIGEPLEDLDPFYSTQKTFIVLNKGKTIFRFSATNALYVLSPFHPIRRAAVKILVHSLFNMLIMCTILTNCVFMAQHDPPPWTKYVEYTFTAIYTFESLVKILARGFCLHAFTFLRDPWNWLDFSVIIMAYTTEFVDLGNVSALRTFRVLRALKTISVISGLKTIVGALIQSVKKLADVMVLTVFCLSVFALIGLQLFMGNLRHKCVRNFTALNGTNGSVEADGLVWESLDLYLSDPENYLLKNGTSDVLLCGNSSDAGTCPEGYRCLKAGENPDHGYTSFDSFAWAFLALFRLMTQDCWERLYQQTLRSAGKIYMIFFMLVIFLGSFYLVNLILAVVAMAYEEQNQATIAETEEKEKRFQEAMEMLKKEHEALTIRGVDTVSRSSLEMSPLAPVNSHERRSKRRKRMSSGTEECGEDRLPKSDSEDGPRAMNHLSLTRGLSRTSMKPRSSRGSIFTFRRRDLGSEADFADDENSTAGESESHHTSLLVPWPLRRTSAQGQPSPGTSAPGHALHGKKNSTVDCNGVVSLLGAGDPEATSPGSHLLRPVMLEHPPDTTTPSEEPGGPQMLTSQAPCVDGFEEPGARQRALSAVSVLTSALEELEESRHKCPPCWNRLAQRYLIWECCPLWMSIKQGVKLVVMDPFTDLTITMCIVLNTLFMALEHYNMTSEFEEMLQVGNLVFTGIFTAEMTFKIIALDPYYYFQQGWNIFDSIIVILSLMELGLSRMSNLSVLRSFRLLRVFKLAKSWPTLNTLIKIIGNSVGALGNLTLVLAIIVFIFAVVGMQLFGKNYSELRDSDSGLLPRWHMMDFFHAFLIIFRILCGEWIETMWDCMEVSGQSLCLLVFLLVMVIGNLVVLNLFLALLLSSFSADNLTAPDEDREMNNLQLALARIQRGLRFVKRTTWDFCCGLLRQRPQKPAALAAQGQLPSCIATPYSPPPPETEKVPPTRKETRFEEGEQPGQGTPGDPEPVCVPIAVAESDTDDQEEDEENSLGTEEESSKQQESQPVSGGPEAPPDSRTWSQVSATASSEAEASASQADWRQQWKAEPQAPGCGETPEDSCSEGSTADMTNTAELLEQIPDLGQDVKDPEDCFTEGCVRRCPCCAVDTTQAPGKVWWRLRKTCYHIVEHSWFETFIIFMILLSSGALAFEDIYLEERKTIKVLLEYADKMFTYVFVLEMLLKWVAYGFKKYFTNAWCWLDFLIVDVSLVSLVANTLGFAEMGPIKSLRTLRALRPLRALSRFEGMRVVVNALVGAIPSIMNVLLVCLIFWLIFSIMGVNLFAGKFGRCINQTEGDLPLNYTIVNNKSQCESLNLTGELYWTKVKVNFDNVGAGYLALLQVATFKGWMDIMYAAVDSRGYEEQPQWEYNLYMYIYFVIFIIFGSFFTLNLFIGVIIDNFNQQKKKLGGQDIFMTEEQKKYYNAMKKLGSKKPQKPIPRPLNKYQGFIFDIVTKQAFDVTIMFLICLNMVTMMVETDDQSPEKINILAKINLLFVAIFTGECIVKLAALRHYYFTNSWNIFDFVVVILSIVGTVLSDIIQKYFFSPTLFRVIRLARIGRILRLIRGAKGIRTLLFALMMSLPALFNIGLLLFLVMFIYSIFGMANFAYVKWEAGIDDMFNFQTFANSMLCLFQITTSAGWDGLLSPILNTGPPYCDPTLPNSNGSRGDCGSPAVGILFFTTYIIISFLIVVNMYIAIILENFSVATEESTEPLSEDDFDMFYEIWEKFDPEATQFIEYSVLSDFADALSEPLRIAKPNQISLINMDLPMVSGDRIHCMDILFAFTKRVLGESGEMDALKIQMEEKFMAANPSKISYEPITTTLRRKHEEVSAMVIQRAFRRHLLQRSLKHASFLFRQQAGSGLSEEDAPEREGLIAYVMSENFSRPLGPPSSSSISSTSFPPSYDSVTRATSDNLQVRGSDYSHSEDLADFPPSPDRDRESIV
row,SMILES,IC50 [nM]
1,"N#Cc1ccc2c(c1)C[C@@H](NC(=O)c1cc3n(n1)CCC(COCC1CC1)O3)CO2 (mixture of isomers) [Example 102, N—((R)-6-cyanochroman-3-yl)-5-((cyclopropylmethoxy)methyl)-6,7-dihydro-5H-pyrazolo[5,1-b][1,3]oxazine-2-carboxamide]",≥ 3000
2,"N#Cc1ccc2c(c1)C[C@@H](NC(=O)c1cc3n(n1)CCC(COCC(F)(F)F)O3)CO2 (mixture of isomers) [Example 114, N—((R)-6-cyanochroman-3-yl)-5-((2,2,2-trifluoroethoxy)methyl)-6,7-dihydro-5H-pyrazolo[5,1-b][1,3]oxazine-2-carboxamide]",≥ 3000
3,"O=C(N[C@H]1COc2ccc(COCC(F)(F)F)cc2C1)c1cc2n(n1)CCC(COCC(F)(F)F)O2 (mixture of isomers) [Example 128, 5-((2,2,2-trifluoroethoxy)methyl)-N—((R)-6-((2,2,2-trifluoroethoxy)methyl)chroman-3-yl)-6,7-dihydro-5H-pyrazolo[5,1-b][1,3]oxazine-2-carboxamide]",1000 to 3000
4,"N#Cc1ccc2c(c1)C[C@@H](NC(=O)c1cc3n(n1)CCC(COC(F)(F)F)O3)CO2 (mixture of isomers) [Example 133, N—((R)-6-cyanochroman-3-yl)-5-((trifluoromethoxy)methyl)-6,7-dihydro-5H-pyrazolo[5,1-b][1,3]oxazine-2-carboxamide]",1000 to 3000
5,"CCCC1CCn2nc(C(=O)N[C@H]3COc4ccc(C#N)cc4C3)cc2O1 (single isomer, unassigned) [95 (isomer B)]",≥ 3000
6,"N#Cc1ccc2c(c1)C[C@@H](NC(=O)c1cc3n(n1)CCC(CC1CC1)O3)CO2 (single isomer, unassigned) [97 (isomer B)]",≥ 3000
7,"O=C(N[C@H]1COc2ccc(-c3ccccn3)cc2C1)c1cc2n(n1)CCC(COCC1CC1)O2 (single isomer, unassigned) [111 (isomer B)]",1000 to 3000
8,"O=C(N[C@H]1COc2ccc(CC(F)F)cc2C1)c1cc2n(n1)CCC(COCC(F)(F)F)O2 (single isomer, unassigned) [127 (isomer B)]",≥ 3000

# Same assay, conditions: human Nav1.5, automated patch clamp
row,SMILES,IC50 [nM]
1,"O=C(N[C@H]1COc2ccc(C(F)(F)F)cc2C1)c1cc2n(n1)CCC(C(F)F)O2 (mixture of isomers) [Example 160, 5-(difluoromethyl)-N—((R)-6-(trifluoromethyl)chroman-3-yl)-6,7-dihydro-5H-pyrazolo[5,1-b][1,3]oxazine-2-carboxamide]",≥ 3000
2,"O=C(N[C@H]1COc2ccc(CC(F)F)cc2C1)c1cc2n(n1)CCC(CCOC(F)F)O2 (single isomer, unassigned) [148 (isomer B)]",≥ 3000
3,"O=C(N[C@H]1COc2ccc(COCC(F)(F)F)cc2C1)c1cc2n(n1)CCC(CCOC(F)F)O2 (single isomer, unassigned) [150 (isomer B)]",1000 to 3000
4,"O=C(N[C@H]1COc2ccc(Cl)cc2C1)c1cc2n(n1)CCC(CNCC(F)(F)F)O2 (single isomer, unassigned) [152 (isomer B)]",≥ 3000
5,"Cn1ccc(-c2ccc3c(c2)C[C@@H](NC(=O)c2cc4n(n2)CC(CCOCC(F)(F)F)O4)CO3)n1 (single isomer, unassigned) [206 (isomer B)]",≥ 3000
6,"O=C(N[C@H]1COc2ccc(CC(F)F)cc2C1)c1cc2n(n1)CC(CCOC(F)(F)F)O2 (single isomer, unassigned) [211 (isomer B)]",< 1000
7,"N#Cc1ccc2c(c1)C[C@@H](NC(=O)c1cc3n(n1)CC(CCCOC(F)(F)F)O3)CO2 (single isomer, unassigned) [247 (isomer B)]",1000 to 3000
8,"O=C(N[C@H]1COc2ccc(C(F)(F)F)cc2C1)c1cc2n(n1)CCC(OCC(F)(F)F)CO2 (single isomer, unassigned) [257 (isomer B)]",≥ 3000
9,"O=C(N[C@H]1COc2ccc(COCC(F)(F)F)cc2C1)c1cc2n(n1)CC(CC1CCOCC1)O2 (single isomer, unassigned) [622 (isomer B)]",≥ 3000
10,O=C(N[C@H]1COc2ccc(Br)cc2C1)c1cc2n(n1)CC(C(F)(F)F)O2 (some centres unmarked) [Example 445],≥ 3000

# Target: human Nav1.7 (Homo sapiens (Human), UniProt Q15858)
# Experiment: Human Nav1.7 inhibitory activity evaluation (automated patch clamp QPatch16X, HEK293A cells stably expressing human Nav1.7 and human Navβ1)
# Format: cell-based
# Details: HEK293A cells stably expressing human Nav1.7 and human Navβ1, automated patch clamp QPatch16X
# Method in brief: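 QPatch16X whole-cell recordings at room temperature from HEK293A cells stably expressing human Nav1.7 with Navβ1, CsF-based internal solution, pH 7.4 external, 0.1% DMSO. From −100 mV holding, protocol included a 15 s hold at a potential inactivating ~30-40% of channels; IC50 from inward current at the second −10 mV pulse.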
# Chain of human Nav1.7 (Q15858 whole entry): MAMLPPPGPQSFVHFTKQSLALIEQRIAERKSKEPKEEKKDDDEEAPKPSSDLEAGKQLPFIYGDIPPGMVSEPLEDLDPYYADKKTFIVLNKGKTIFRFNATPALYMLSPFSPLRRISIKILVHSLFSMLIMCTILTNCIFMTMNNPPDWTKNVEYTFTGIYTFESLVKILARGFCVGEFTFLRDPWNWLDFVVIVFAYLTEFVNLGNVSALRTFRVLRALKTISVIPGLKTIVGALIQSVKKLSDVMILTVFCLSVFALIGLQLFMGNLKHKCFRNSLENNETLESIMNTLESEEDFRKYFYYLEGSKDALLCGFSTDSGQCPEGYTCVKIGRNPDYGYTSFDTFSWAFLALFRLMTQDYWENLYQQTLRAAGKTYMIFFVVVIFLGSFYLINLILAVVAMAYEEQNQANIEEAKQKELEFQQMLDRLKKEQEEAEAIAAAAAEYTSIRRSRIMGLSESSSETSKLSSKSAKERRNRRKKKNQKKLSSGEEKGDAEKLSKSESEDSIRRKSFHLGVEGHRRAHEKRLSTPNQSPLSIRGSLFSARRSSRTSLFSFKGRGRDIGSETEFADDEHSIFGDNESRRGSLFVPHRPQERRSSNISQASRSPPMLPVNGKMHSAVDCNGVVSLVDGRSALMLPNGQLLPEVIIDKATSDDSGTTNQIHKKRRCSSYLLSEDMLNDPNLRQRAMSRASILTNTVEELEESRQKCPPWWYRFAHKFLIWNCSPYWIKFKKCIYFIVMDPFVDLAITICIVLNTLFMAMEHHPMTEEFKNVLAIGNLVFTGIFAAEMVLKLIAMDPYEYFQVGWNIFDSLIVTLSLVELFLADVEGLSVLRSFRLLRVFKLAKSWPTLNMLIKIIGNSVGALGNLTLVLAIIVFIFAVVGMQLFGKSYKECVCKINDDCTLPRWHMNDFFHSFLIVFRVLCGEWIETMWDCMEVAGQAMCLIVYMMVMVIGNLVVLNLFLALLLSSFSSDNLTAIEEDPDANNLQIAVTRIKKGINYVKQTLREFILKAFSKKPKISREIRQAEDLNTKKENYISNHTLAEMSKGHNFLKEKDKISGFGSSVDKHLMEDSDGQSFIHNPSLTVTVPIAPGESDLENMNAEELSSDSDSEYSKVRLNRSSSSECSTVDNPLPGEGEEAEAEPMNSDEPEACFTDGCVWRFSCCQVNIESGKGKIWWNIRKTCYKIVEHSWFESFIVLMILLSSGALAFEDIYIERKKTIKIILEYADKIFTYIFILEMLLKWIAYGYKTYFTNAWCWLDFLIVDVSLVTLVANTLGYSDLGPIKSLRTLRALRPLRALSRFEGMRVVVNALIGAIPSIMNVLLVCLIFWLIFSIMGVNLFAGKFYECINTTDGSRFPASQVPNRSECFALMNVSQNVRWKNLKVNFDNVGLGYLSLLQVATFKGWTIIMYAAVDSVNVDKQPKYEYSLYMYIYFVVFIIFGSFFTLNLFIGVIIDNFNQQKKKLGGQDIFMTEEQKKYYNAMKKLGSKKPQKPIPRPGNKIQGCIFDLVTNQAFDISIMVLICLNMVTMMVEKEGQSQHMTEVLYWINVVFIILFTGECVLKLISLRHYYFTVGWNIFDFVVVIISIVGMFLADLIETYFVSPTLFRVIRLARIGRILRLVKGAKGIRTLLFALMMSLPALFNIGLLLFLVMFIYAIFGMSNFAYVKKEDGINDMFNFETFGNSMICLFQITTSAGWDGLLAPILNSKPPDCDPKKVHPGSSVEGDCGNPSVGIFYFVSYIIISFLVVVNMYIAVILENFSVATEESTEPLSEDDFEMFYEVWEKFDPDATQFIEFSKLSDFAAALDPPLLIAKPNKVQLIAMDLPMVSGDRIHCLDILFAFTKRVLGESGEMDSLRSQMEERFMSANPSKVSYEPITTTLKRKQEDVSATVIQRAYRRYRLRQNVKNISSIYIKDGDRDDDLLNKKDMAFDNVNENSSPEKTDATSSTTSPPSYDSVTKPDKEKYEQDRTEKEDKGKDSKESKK
# Chain of human Nav1.7 (Q07699 19-218 partner): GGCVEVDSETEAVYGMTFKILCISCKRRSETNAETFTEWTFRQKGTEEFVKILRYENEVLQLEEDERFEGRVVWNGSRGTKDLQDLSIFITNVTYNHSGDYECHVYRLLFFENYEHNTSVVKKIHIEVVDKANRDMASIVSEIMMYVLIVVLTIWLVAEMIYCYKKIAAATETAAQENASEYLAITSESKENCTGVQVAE
row,IC50 [nM],SMILES
1,< 1000,"N#Cc1ccc2c(c1)C[C@@H](NC(=O)c1cc3n(n1)CCC(COCC1CC1)O3)CO2 (mixture of isomers) [Example 102, N—((R)-6-cyanochroman-3-yl)-5-((cyclopropylmethoxy)methyl)-6,7-dihydro-5H-pyrazolo[5,1-b][1,3]oxazine-2-carboxamide]"
2,< 10000,"N#Cc1ccc2c(c1)C[C@@H](NC(=O)c1cc3n(n1)CCC(COCC(F)(F)F)O3)CO2 (mixture of isomers) [Example 114, N—((R)-6-cyanochroman-3-yl)-5-((2,2,2-trifluoroethoxy)methyl)-6,7-dihydro-5H-pyrazolo[5,1-b][1,3]oxazine-2-carboxamide]"
3,< 1000,"O=C(N[C@H]1COc2ccc(COCC(F)(F)F)cc2C1)c1cc2n(n1)CCC(COCC(F)(F)F)O2 (mixture of isomers) [Example 128, 5-((2,2,2-trifluoroethoxy)methyl)-N—((R)-6-((2,2,2-trifluoroethoxy)methyl)chroman-3-yl)-6,7-dihydro-5H-pyrazolo[5,1-b][1,3]oxazine-2-carboxamide]"
4,< 1000,"N#Cc1ccc2c(c1)C[C@@H](NC(=O)c1cc3n(n1)CCC(COC(F)(F)F)O3)CO2 (mixture of isomers) [Example 133, N—((R)-6-cyanochroman-3-yl)-5-((trifluoromethoxy)methyl)-6,7-dihydro-5H-pyrazolo[5,1-b][1,3]oxazine-2-carboxamide]"

# Same assay, conditions: human Nav1.7, automated patch clamp
row,IC50 [nM],SMILES
1,< 1000,"O=C(N[C@H]1COc2ccc(C(F)(F)F)cc2C1)c1cc2n(n1)CCC(C(F)F)O2 (mixture of isomers) [Example 160, 5-(difluoromethyl)-N—((R)-6-(trifluoromethyl)chroman-3-yl)-6,7-dihydro-5H-pyrazolo[5,1-b][1,3]oxazine-2-carboxamide]"
2,< 10000,O=C(N[C@H]1COc2ccc(C(F)(F)F)cc2C1O)c1cc2n(n1)CC(COCCOCC(F)(F)F)O2 (some centres unmarked) [Example 660]
3,< 1000,O=C(N[C@H]1COc2ccc(COCC(F)(F)F)cc2C1)c1cc2n(n1)CC(COCCOCC(F)(F)F)O2 (some centres unmarked) [Example 661]
4,< 1000,O=C(N[C@H]1COc2ccc(Cl)cc2C1)c1cc2n(n1)CCC(COCCOCC(F)(F)F)O2 (some centres unmarked) [Example 662]
5,< 1000,O=C(N[C@H]1COc2ccc(C(F)(F)F)cc2C1)c1cc2n(n1)CCC(COCCOCC(F)(F)F)O2 (some centres unmarked) [Example 663]
6,< 10000,N#Cc1ccc2c(c1)C[C@@H](NC(=O)c1cc3n(n1)CCC(COCCOCC(F)(F)F)O3)CO2 (some centres unmarked) [Example 664]
7,< 1000,O=C(N[C@H]1COc2ccc(C(F)(F)F)cc2C1F)c1cc2n(n1)CCC(COCCOCC(F)(F)F)O2 (some centres unmarked) [Example 665]
8,< 10000,O=C(N[C@H]1COc2ccc(C(F)(F)F)cc2C1)c1cc2n(n1)CCN(CCOCC(F)F)C2 [Example 666]
9,< 1000,O=C(N[C@H]1COc2ccc(COCC(F)(F)F)cc2C1)c1cc2n(n1)CCN(CCOCC(F)(F)F)C2 [Example 667]
10,< 10000,O=C(N[C@H]1COc2ccc(CC(F)F)cc2C1)c1cc2n(n1)CCC(C1CCCO1)O2 (some centres unmarked) [Example 668]
11,< 10000,O=C(N[C@H]1COc2ccc(C(F)(F)F)cc2C1)c1cc2n(n1)CCN(CC1CCOC1)C2 (some centres unmarked) [Example 669]
12,< 1000,O=C(N[C@H]1COc2ccc(C(F)(F)F)cc2C1F)c1cc2n(n1)CCN(C1CCOC1)C2 (some centres unmarked) [Example 670]
13,< 1000,CC(C)OCCN1CCn2nc(C(=O)N[C@H]3COc4ccc(C(F)(F)F)cc4C3F)cc2C1 (some centres unmarked) [Example 671]
14,< 1000,O=C(N[C@H]1COc2ccc(C(F)(F)F)cc2C1F)c1cc2n(n1)CCN(CC1CCCOC1)C2 (some centres unmarked) [Example 672]
15,< 1000,O=C(N[C@H]1COc2ccc(C(F)(F)F)cc2C1F)c1cc2n(n1)CCN(CC1CCOC1)C2 (some centres unmarked) [Example 673]
16,< 10000,O=C(N[C@H]1COc2ccc(CC(F)F)cc2C1)c1cc2n(n1)CCC(CC1CCOCC1)O2 (some centres unmarked) [Example 674]
17,< 1000,O=C(N[C@H]1COc2ccc(C(F)(F)F)cc2C1F)c1cc2n(n1)CC(COCCOCC(F)(F)F)O2 (some centres unmarked) [Example 676]
18,< 10000,O=C(N[C@H]1COc2ccc(C(F)(F)F)cc2C1O)c1cc2n(n1)CCN(CCOCC(F)(F)F)C2 (some centres unmarked) [Example 677]
19,< 1000,O=C(N[C@H]1COc2ccc(C(F)(F)F)cc2C1F)c1cc2n(n1)CCN(CCOCC(F)F)C2 (some centres unmarked) [Example 678]
20,< 1000,O=C(N[C@H]1COc2ccc(C(F)(F)F)cc2C1F)c1cc2n(n1)CCC(OCC(F)(F)F)CO2 (some centres unmarked) [Example 679]
21,< 10000,O=C(N[C@H]1COc2ccc(C(F)(F)F)cc2C1)c1cc2n(n1)CCC(OCCOCC(F)(F)F)CO2 (some centres unmarked) [Example 680]
22,< 10000,O=C(N[C@H]1COc2ccc(Cl)cc2C1)c1cc2n(n1)CCC(OCCOCC(F)(F)F)CO2 (some centres unmarked) [Example 682]
